Assay [1] deals with isolated rabbit thoracic aorta preparations. Put plainly: Assay on vascular tone (vessel relaxation assay). Format: cell-based. The following applies: Oryctolagus cuniculus; aortic rings precontracted with noradrenaline 1 μM, functional endothelium. The method, then: The ability of the compounds of the invention to induce vasorelaxation in comparison to native angiotensin II receptor blockers (ARBs) was tested in vitro in isolated rabbit thoracic aorta preparations (Wanstall J. C. et al., Br. J. Pharmacol., 134:463-472, 2001). Male New Zealand rabbits were anaesthetized with thiopental-Na (50 mg/kg, iv), sacrificed by exsanguinations and then the thorax was opened and the aorta dissected. Aortic ring preparations (4 mm in length) were set up in physiological salt solution (PSS) at 37° C. in small organ chambers (5 ml). The composition of PSS was (mM): NaCl 130, NaHCO3 14.9, KH2PO4 1.2, MgSO4 1.2, HEPES 10, CaCl2, ascorbic acid […] and glucose 1.1 (95% O2/5% CO2; pH 7.4). Each ring was mounted under 2 g passive tension. Isometric tension was recorded with a Grass transducer (Grass FT03) attached to a BIOPAC MP150 System. Preparations were allowed to equilibrate for 1 h, and then contracted submaximally with noradrenaline (NA, 1 μM) and, when the contraction was stable, acetylcholine (ACh, 10 μM) was added. A relaxant response to ACh indicated the presence of a functional endothelium. […] When a stable precontraction was reached, a cumulative concentration-response curve to either of the vasorelaxant agents was obtained in the presence of a functional endothelium. Each arterial ring was exposed to only one combination of inhibitor and vasorelaxant. Moreover, the effect of the soluble guanylyl cyclase inhibitor ODQ (1-H-(1,2,4)-oxadiazol(4,3-a)quinoxalin-1-one) on vasorelaxation elicited by the compounds was examined preincubating the aortic rings with ODQ (10 μM) for 20 min.
Responses to relaxing agents are expressed as a percentage of residual contraction and plotted against concentration of test compound. EC50 values (where EC50 is the concentration producing 50% of the maximum relaxation to the test compound) were interpolated from these plots. During the experimental period, the plateau obtained with NA was stable without significant spontaneous loss of contraction in the aortic rings.
Furthermore, in experiments performed in the presence of ODQ (10 μM), the vasorelaxant responses to tested compounds were inhibited.

In assay [2] the test system is conscious spontaneously hypertensive rats (SHRs). Description: Assay for antihypertensive activity (in vivo). More on the design: species or system rat. The following applies: for BP lowering compared to Compound A: SHR, same dose (10 mg/kg) or inferior dose (3 mg/kg). The protocol: The ability of the compounds of the invention to decrease blood pressure was evaluated in conscious spontaneously hypertensive rats (SHRs). SHRs (250-300 g) received a single oral dose of tested compounds. Systolic blood pressure (SBP) and heart rate were monitored by telemetry for 24 hours after dosing. SBP was evaluated before (baseline) and at different time points (i.e. 2-6, 12, 21-hours) following treatment by oral administration of the compounds. The data were processed both as the absolute value or as a delta between the absolute value and its own baseline.
The Dataquest IV telemetry system (Data Sciences International) was used for measurement of systolic pressure, diastolic pressure, mean arterial pressure, heart rate, and motor activity. The monitoring system consists of a transmitter (radio frequency transducer model TA11PA), receiver panel, consolidation matrix, and personal computer with accompanying software. Before the device was implanted, calibrations were verified to be accurate within ±3 mmHg. Rats were anesthetized with ketamine/xylazine/acepromazine, and the flexible catheter of the transmitter was surgically secured in the abdominal aorta just below the renal arteries. The transmitter was sutured subcutaneously. Rats were housed in individual cages after the operation. Each cage was placed over the receiver panel that was connected to the personal computer for data acquisition. The rats were unrestrained and free to move within their cages. Hemodynamic data were sampled every 2 minutes for 10 seconds.

In assay [3] the test system is Reactive Nitrogen Species (RNS). Description: Assay for Reactive Nitrogen Species (RNS) (DAN assay). Particulars: for RNS levels: EDTA-treated rat plasma. Details: RNS levels: unit not given here. It is filed as in vivo, rat. From the text: RNS were detected as S-nitrosothiols (RNSOs) in EDTA-treated rat plasma using an HPLC fluorescent assay based on the method of Kostka and Park (Methods Enzymol. 1999, 301, 227-235). The method is based on the detection of fluorescent 2,3-naphthotriazole (NAT) formed in the reaction between acidified 2,3-diaminonaphthalene (DAN) and the nitrosonium moiety of RSNOs released by HgCl2-mediated breakdown of the S—NO bond. The reaction mixture was chromatographed by reversed phase HPLC, and the fluorescent signal of the resolved NAT peak was quantified.
Plasma (20 μL) was first diluted 1:1 in H2O (20 μL) in a black polypropylene untreated microtiter plate. DAN reagent (100 μL per well, 100 μM DAN in 0.1 N HCl, 4 mM HgCl2) was added, and the plate was immediately sealed with an opaque plate mat, vortexed, and incubated in the dark for 10 min. Plates were centrifuged (2000×g, 5 min) and chilled to 4° C. before HPLC analysis. HPLC was carried out on an Agilent 1200 system using a chilled autosampler (4° C.). Samples were chromatographed on a C8 column (Zorbax Eclipse XDB-C8, 4.6×150 mm, 5 μm) with isocratic elution using a mobile phase of 67% MeOH, 0.1% NH4OAc and a flow rate of 2 mL/min. NAT fluorescence was monitored at 450 nm using an excitation wavelength of 360 nm. Calibration curves were prepared using NaNO2 in control plasma. Typical range of quantitation was 0.1 μM to 30 μM NO2.

[4] abbreviates: 3 mpk single oral dose, 21-24 h.
[5] abbreviates: 10 mpk single oral dose, 21-24 h.

What is called EC50 is the concentration that produces a half-maximal response. With `CCCCc1nc(Cl)c(C(=O)OC(C)OC(=O)OCCCC[C@H](C)O[N+](=O)[O-])n1Cc1ccc(-c2ccccc2-c2nn[nH]n2)cc1` (stereo partly drawn) [Example 3, 1-[({[(5S)-5-(nitrooxy)hexyl]oxy}carbonyl)oxy]ethyl 2-butyl-4-chloro-1-{[2′-(1H-tetrazol-5-yl)biphenyl-4-yl]methyl}-1H-imidazole-5-carboxylate], the EC50 in assay [1] amounted to 39 µM.
As to `CCOc1nc2cccc(C(=O)OC(C)OC(=O)CCCC(C)O[N+](=O)[O-])c2n1Cc1ccc(-c2ccccc2-c2nn[nH]n2)cc1` (centres unmarked) [Example 9], the “Δ SBP in SHR” value is on record as −43 mmHg in assay [2] (3 mpk single oral dose, 2-6 h); −50 mmHg in assay [2] (setting [4]); −49 mmHg in assay [2] (3 mpk single oral dose, 12 h). For the same compound, the “BP lowering compared to Compound A” value in assay [2] is “extended peak effect and duration of action”. Also, in assay [1], the EC50 was 43 µM.
Regarding `CCCCc1nc(Cl)c(C(=O)OC(C)OC(=O)CCCC(C)O[N+](=O)[O-])n1Cc1ccc(-c2ccccc2-c2nn[nH]n2)cc1` (centres unmarked) [Example 8], the “Δ SBP in SHR” value in assay [2] (10 mpk single oral dose, 2-6 h) was −31 mmHg; in assay [2] (setting [5]) it was −28 mmHg; in assay [2] (10 mpk single oral dose, 12 h) it was −29 mmHg. Besides, the “BP lowering compared to Compound A” value in assay [2] is “extended peak effect and duration of action”. The EC50 in assay [1] came out at 40 µM.
Regarding `CCCCc1nc(Cl)c(C(=O)OC(C)OC(=O)OCCC(C)O[N+](=O)[O-])n1Cc1ccc(-c2ccccc2-c2nn[nH]n2)cc1` (centres unmarked) [Example 5, 1-[({[3-(nitrooxy)butyl]oxy}carbonyl)oxy]ethyl 2-butyl-4-chloro-1-{[2′-(1H-tetrazol-5-yl)biphenyl-4-yl]methyl}-1H-imidazole-5-carboxylate], the EC50 in assay [1] is 22 µM.
Take `CCCCc1nc(Cl)c(C(=O)OC(C)OC(=O)OCC[C@@H](C)O[N+](=O)[O-])n1Cc1ccc(-c2ccccc2-c2nn[nH]n2)cc1` (stereo partly drawn) [Example 6, 1-[({[(3R)-3-(nitrooxy)butyl]oxy}carbonyl)oxy]ethyl 2-butyl-4-chloro-1-{[2′-(1H-tetrazol-5-yl)biphenyl-4-yl]methyl}-1H-imidazole-5-carboxylate]: the “Δ SBP in SHR” value in assay [2] (10 mpk single oral dose, 2-6 h) is −16 mmHg; in assay [2] (setting [5]), −17 mmHg; in assay [2] (10 mpk single oral dose, 12 h), −21 mmHg. Also, the “BP lowering compared to Compound A” value in assay [2] is “extended peak effect and duration of action”. The EC50 in assay [1] was found to be 23 µM.
Take `CCOc1nc2cccc(C(=O)OC(C)(C)OC(=O)OCCCCC(C)O[N+](=O)[O-])c2n1Cc1ccc(-c2ccccc2-c2nnn[nH]2)cc1` (centres unmarked) [Example 2]: the “Δ SBP in SHR” value is −30 mmHg in assay [2] (3 mpk single oral dose, 2-6 h); −36 mmHg in assay [2] (setting [4]); −34 mmHg in assay [2] (3 mpk single oral dose, 12 h). Also, in assay [2], the “BP lowering compared to Compound A” value is “extended peak effect and duration of action”. Further, the EC50 in assay [1] was found to be 31 µM.
Consider `CCCCc1nc(Cl)c(C(=O)OC(C)OC(=O)OCCCCC(C)O[N+](=O)[O-])n1Cc1ccc(-c2ccccc2-c2nn[nH]n2)cc1` (centres unmarked) [Example 4, 1-[({[5-(nitrooxy)hexyl]oxy}carbonyl)oxy]ethyl 2-butyl-4-chloro-1-{[2′-(1H-tetrazol-5-yl)biphenyl-4-yl]methyl}-1H-imidazole-5-carboxylate], for which the RNS levels in assay [3] (time 0 h) is on record as 0.9; in assay [3] (time 1 h) it was 6.9; in assay [3] (time 3 h) it was 6.9; in assay [3] (time 6 h), 2.4; in assay [3] (time 24 h), 1.6. Further, in assay [3] (rat plasma), the “RNS levels compared to Compound A” value is “improved RNS levels”. In addition, the “Δ SBP in SHR” value in assay [2] (10 mpk single oral dose, 2-6 h) is recorded as −10 mmHg; in assay [2] (setting [5]), −30 mmHg; in assay [2] (10 mpk single oral dose, 12 h) it was −30 mmHg. In assay [2], the “BP lowering compared to Compound A” value was “extended peak effect and duration of action”. Moreover, the EC50 in assay [1] is 27 µM.
Regarding `CCCCc1nc(Cl)c(COC(=O)C23CC4CC(CC(O[N+](=O)[O-])(C4)C2)C3)n1Cc1ccc(-c2ccccc2-c2nnn[nH]2)cc1` [Example 10, (2-butyl-4-chloro-1-{[2′-(1H-tetrazol-5-yl)biphenyl-4-yl]methyl}-1H-imidazol-5-yl)methyl 3-(nitrooxy)adamantane-1-carboxylate], the 50% effective concentration (EC50) in assay [1] was 5.3 µM.
Same read-out and setting: for `CCCCc1nc(Cl)c(C(=O)OC(C)OC(=O)OCC[C@H](C)O[N+](=O)[O-])n1Cc1ccc(-c2ccccc2-c2nn[nH]n2)cc1` (stereo partly drawn) [Example 7, 1-[({[(3S)-3-(nitrooxy)butyl]oxy}carbonyl)oxy]ethyl 2-butyl-4-chloro-1-{[2′-(1H-tetrazol-5-yl)biphenyl-4-yl]methyl}-1H-imidazole-5-carboxylate] the value was 26 µM.
With `CCCCc1nc(Cl)c(C(=O)OCCOCCO[N+](=O)[O-])n1Cc1ccc(-c2ccccc2-c2nn[nH]n2)cc1` [Compound A, reference compound], the RNS levels came to 0.4 in assay [3] (time 0 h); 2.8 in assay [3] (time 1 h); 1.4 in assay [3] (time 3 h); 0.9 in assay [3] (time 6 h); 0 in assay [3] (time 24 h). For the same compound, the “Δ SBP in SHR” value is reported as −15 mmHg in assay [2] (10 mpk single oral dose, 2-6 h); −8 mmHg in assay [2] (setting [5]); −12 mmHg in assay [2] (10 mpk single oral dose, 12 h).
On to `CCCCc1nc(Cl)c(C(=O)OC(C)OC(=O)OCCCC[C@@H](C)O[N+](=O)[O-])n1Cc1ccc(-c2ccccc2-c2nnn[nH]2)cc1` (stereo partly drawn) [Example 1, 1-[({[(R)-5-(nitrooxy)hexyl]oxy}carbonyl)oxy]ethyl 2-butyl-4-chloro-1-{[2′-(1H-tetrazol-5-yl)biphenyl-4-yl]methyl}-1H-imidazole-5-carboxylate], for which the EC50 in assay [1] turned out to be 22 µM.

The values are drawn from US20100311800A1, “ANGIOTENSIN II RECEPTOR ANTAGONISTS” (priority 2008, published 2010).
